From patent US4298690A, “Antibiotics XK-62-3 and XK-62-4 and process for production thereof” (Kyowa Hakko Kogyo Co., Ltd., priority 1977, dated 1981)
In brackets after ≈: the same amount, converted by molar mass. Counter-ions that a name gives are not always drawn.

Assays:
[1] = system: resistant strains of Escherichia coli and Pseudomonas aeruginosa (3-N-acetylation, 2"-adenylation); experiment: Antibacterial activity against resistant strains with 3-N-acetylation, 2"-adenylation (in words); type: cell-based; conditions: E. coli and P. aeruginosa resistant by 3-N-acetylation, etc.
Excerpt: (§1) Table 4 illustrates the antibacterial spectra of XK-62-3 and XK-62-4 against various microorganisms.
(§2) (Minimum Inhibitory Concentration, γ/ml
(§3) measured by agar dilution method at pH 8.0)

[2] = system: Serratia marcescens KY 4248; experiment: MIC by agar dilution method at pH 8.0, Serratia marcescens KY 4248; type: cell-based; conditions: KY4248, read-out: Minimum Inhibitory Concentration
Excerpt: as §1, §2, §3

[3] = system: Pseudomonas aeruginosa Z 444; experiment: MIC by agar dilution method at pH 8.0, Pseudomonas aeruginosa Z 444; type: cell-based; conditions: Z444, Pseudomonas aeruginosa Z 444, resistant to gentamicin, AAC(6')-III, read-out: Minimum Inhibitory Concentration
Excerpt: as §1, §2, §3

[4] = system: Bacillus subtilis No. 10707; experiment: MIC by agar dilution method at pH 8.0, Bacillus subtilis No. 10707; type: cell-based; conditions: read-out: Minimum Inhibitory Concentration
Excerpt: as §1, §2, §3

[5] = system: Escherichia coli KY 8348; experiment: MIC by agar dilution method at pH 8.0, Escherichia coli KY 8348; type: cell-based; conditions: KY8348, Escherichia coli KY 8348, resistant to gentamicin, AAC(3)-I, read-out: Minimum Inhibitory Concentration
Excerpt: as §1, §2, §3

[6] = system: Staphylococcus aureus ATCC 6538P; experiment: MIC by agar dilution method at pH 8.0, Staphylococcus aureus ATCC 6538P; type: cell-based; conditions: ATCC6538P, read-out: Minimum Inhibitory Concentration
Excerpt: as §1, §2, §3

[7] = system: Pseudomonas aeruginosa KY 8511; experiment: MIC by agar dilution method at pH 8.0, Pseudomonas aeruginosa KY 8511; type: cell-based; conditions: KY8511, Pseudomonas aeruginosa KY 8511, resistant to gentamicin, AAC(3)-I, read-out: Minimum Inhibitory Concentration
Excerpt: as §1, §2, §3

[8] = system: Providenicia sp. KY 8464; experiment: MIC by agar dilution method at pH 8.0, Providenicia sp. KY 8464; type: cell-based; conditions: read-out: Minimum Inhibitory Concentration
Excerpt: as §1, §2, §3

[9] = system: Proteus vulgaris ATCC 6897; experiment: MIC by agar dilution method at pH 8.0, Proteus vulgaris ATCC 6897; type: cell-based; conditions: ATCC6897, read-out: Minimum Inhibitory Concentration
Excerpt: as §1, §2, §3

[10] = system: Klebsiella pneumoniae ATCC 10031; experiment: MIC by agar dilution method at pH 8.0, Klebsiella pneumoniae ATCC 10031; type: cell-based; conditions: ATCC10031, read-out: Minimum Inhibitory Concentration
Excerpt: as §1, §2, §3

[11] = system: Shigella sonnei ATCC 9290; experiment: MIC by agar dilution method at pH 8.0, Shigella sonnei ATCC 9290; type: cell-based; conditions: ATCC9290, read-out: Minimum Inhibitory Concentration
Excerpt: as §1, §2, §3

[12] = system: Gram-positive and Gram-negative bacteria; experiment: Antibacterial activity against a broad range of bacteria (in words); type: cell-based
Excerpt: as §1, §2, §3

[13] = system: Bacillus subtilis No. 10707; experiment: Activity (units) of purified preparate; type: cell-based; conditions: for activity: per mg not given, Examples 2D, 3, 4
Description: The activity of the eluate is determined against Bacillus subtilis No. 10707 by a paper disk method using an agar plate. Active fractions are combined and concentrated in vacuo to about 3 L. The concentrate is adjusted to pH 8.0 with 6 N sulfuric acid and passed through a column packed with 3 L of an anion exchange resin, Dowex 1×2 (OH^- form). The column is washed with about 20 L of water and active principles are eluted with 1 N aqueous ammonia. The active fractions are combined and concentrated to 1/10 by volume. The pH of the concentrate is adjusted to 10.5 with 6 N sodium hydroxide and 4 volumes of acetone is added thereto. The resulting precipitate is removed by filtration and the acetone layer is concentrated to 2 L. The concentrate is adjusted to pH 4.5 with 6 N sulfuric acid and then 10 L of methanol is added thereto. After cooling, a white precipitate is obtained. The precipitate is separated by filtration and washed with methanol. After drying in vacuo, about 250 g of white powder (sulfate form) is obtained.
The residue is dissolved in a small amount of water and the solution is freeze-dried to obtain about 1.5 g of purified preparate of the free base of XK-62-3.
The residue is dissolved in a small amount of water and the solution is freeze-dried to obtain about 2.2 g of purified preparate of the free base of XK-62-4.
After the completion of fermentation, the culture liquor is adjusted to pH 2.0 with 12 N sulfuric acid and stirred for 30 minutes. Then, about 20 kg of Radiolite No. 600 (filter aid) is added thereto and the microbial cells are removed by filtration. The filtrate is adjusted to pH 8.0 with 6 N sodium hydroxide and passed through a column packed with 100 L of a cation exchange resin, Amberlite IRC-50 (NH4^+ form). After washing the resin with water, the active substances are eluted out with 1 N aqueous ammonia. The eluate is obtained in fractions and the activity of each of the fractions is determined against Bacillus subtilis No. 10707 by a paper disc method using an agar plate. The eluate is concentrated to 2 L under reduced pressure. The concentrate is adjusted to pH 4.5 with 6 N sulfuric acid and the resulting insoluble substance is removed by filtration. To the filtrate 20 L of methanol is added to form a white precipitate. The precipitate is separated by filtration and washed with methanol. After drying in vacuo, 500 g of white powder, of a crude XK-62 series (sulfate form) is obtained.

[14] = system: Escherichia coli ATCC 26; experiment: MIC by agar dilution method at pH 8.0, Escherichia coli ATCC 26; type: cell-based; conditions: ATCC26, read-out: Minimum Inhibitory Concentration
Excerpt: as §1, §2, §3

[15] = system: Escherichia coli KY 8327; experiment: MIC by agar dilution method at pH 8.0, Escherichia coli KY 8327; type: cell-based; conditions: KY8327, pH 8, read-out: Minimum Inhibitory Concentration
Excerpt: as §1, §2, §3

[16] = Solubility of the free base; type: physicochemical; conditions: for solubility in organic solvents: chloroform, benzene, ethyl acetate, butyl acetate, ether, butanol, petroleum ether, n-hexane
[17] = system: Pseudomonas aeruginosa KY 8563; experiment: MIC by agar dilution method at pH 8.0, Pseudomonas aeruginosa KY 8563; type: cell-based; conditions: KY8563, Pseudomonas aeruginosa KY 8563, resistant to gentamicin, AAC(3)-II, read-out: Minimum Inhibitory Concentration
Excerpt: as §1, §2, §3

[18] = system: Escherichia coli KY 8310; experiment: MIC by agar dilution method at pH 8.0, Escherichia coli KY 8310; type: cell-based; conditions: KY8310, read-out: Minimum Inhibitory Concentration
Excerpt: as §1, §2, §3

[19] = system: Salmonella typhosa ATCC 9992; experiment: MIC by agar dilution method at pH 8.0, Salmonella typhosa ATCC 9992; type: cell-based; conditions: Salmonella enterica, pH 8, read-out: Minimum Inhibitory Concentration
Excerpt: as §1, §2, §3

[20] = system: Klebsiella pneumoniae KY 4261; experiment: MIC by agar dilution method at pH 8.0, Klebsiella pneumoniae KY 4261; type: cell-based; conditions: KY4261, read-out: Minimum Inhibitory Concentration
Excerpt: as §1, §2, §3

[21] = system: Escherichia coli KY 8356; experiment: MIC by agar dilution method at pH 8.0, Escherichia coli KY 8356; type: cell-based; conditions: KY8356, read-out: Minimum Inhibitory Concentration
Excerpt: as §1, §2, §3

[22] = system: Pseudomonas aeruginosa BMH No. 1; experiment: MIC by agar dilution method at pH 8.0, Pseudomonas aeruginosa BMH No. 1; type: cell-based; conditions: BMHNO.1, read-out: Minimum Inhibitory Concentration
Excerpt: as §1, §2, §3

[23] = Acute toxicity in dd-mice; conditions: mouse, in vivo
[24] = system: Escherichia coli KY 8332; experiment: MIC by agar dilution method at pH 8.0, Escherichia coli KY 8332; type: cell-based; conditions: KY8332, Escherichia coli KY 8332, resistant to kanamycin, AAC(6')-I, read-out: Minimum Inhibitory Concentration
Excerpt: as §1, §2, §3

[25] = system: resistant strains of Escherichia coli and Pseudomonas aeruginosa (6'-N-acetylation); experiment: Antibacterial activity against resistant strains with 6'-N-acetylation (in words); type: cell-based; conditions: E. coli and P. aeruginosa resistant by 6'-N-acetylation, etc.
Excerpt: as §1, §2, §3

[26] = system: Pseudomonas aeruginosa Z 445; experiment: MIC by agar dilution method at pH 8.0, Pseudomonas aeruginosa Z 445; type: cell-based; conditions: Z445, Pseudomonas aeruginosa Z 445, resistant to gentamicin, AAC(6')-III, read-out: Minimum Inhibitory Concentration
Excerpt: as §1, §2, §3

[27] = system: resistant strains of Escherichia coli and Pseudomonas aeruginosa (6'-N-acetylation); conditions: strains with 6'-N-acetylation, etc.; known antibiotics; cited from earlier work
[28] = system: resistant strains of Escherichia coli and Pseudomonas aeruginosa (3-N-acetylation, 2"-adenylation); conditions: strains with 3-N-acetylation, etc., known antibiotics; cited from earlier work
[29] = free base, Example 1, 1 mg of pure preparate corresponds to 1000 units

## CNC1CC(N)C(OC2OCC(C)(O)C(NC)C2O)C(O)C1OC1OC(CN)CCC1N (stereo not shown) [XK-62-3]
[1]
  antibacterial activity against certain resistant strains: strong antibacterial activity
[2]
  MIC: 1.52 µg/mL (≈ 3.28 µM)
[3]
  MIC: > 10 µg/mL
[4]
  MIC: < 1.1 ng/mL
[5]
  MIC: 0.033 µg/mL (≈ 0.0712 µM)
[6]
  MIC: 2.1 ng/mL (≈ 0.00453 µM)
[7]
  MIC: 0.26 µg/mL (≈ 0.561 µM)
[8]
  MIC: 1.04 µg/mL (≈ 2.24 µM)
[9]
  MIC: 0.26 µg/mL (≈ 0.561 µM)
[10]
  MIC: 8.2 ng/mL (≈ 0.0177 µM)
[11]
  MIC: 0.13 µg/mL (≈ 0.28 µM)
[12]
  antibacterial activity: very strong antibacterial activity
[13]; Example 2
  activity of purified preparate: 970 units/mg
[13]; [29]
  activity of purified preparate: about 985 unit/mg
[14]
  MIC: 0.066 µg/mL (≈ 0.142 µM)
[15]
  MIC: 0.066 µg/mL (≈ 0.142 µM)
[16]
  solubility in organic solvents: insoluble
  solubility in ethanol and acetone: slightly soluble
  solubility in methanol: soluble
  solubility in water: very soluble
[17]
  MIC: 0.25 µg/mL (≈ 0.539 µM)
[18]
  MIC: 0.066 µg/mL (≈ 0.142 µM)
[19]
  MIC: 0.033 µg/mL (≈ 0.0712 µM)
[20]
  MIC: 0.066 µg/mL (≈ 0.142 µM)
[21]
  MIC: 0.26 µg/mL (≈ 0.561 µM)
[22]
  MIC: 0.26 µg/mL (≈ 0.561 µM)
[23]
  LD50: 106 mg/kg

## CNC1C(O)C(OC2C(N)CC(N)C(OC3OC(CN(C)C)CCC3N)C2O)OCC1(C)O (stereo not shown) [XK-62-4]
[2]
  MIC: 0.26 µg/mL (≈ 0.544 µM)
[3]
  MIC: 0.26 µg/mL (≈ 0.544 µM)
[4]
  MIC: < 1.1 ng/mL
[6]
  MIC: 2.1 ng/mL (≈ 0.0044 µM)
[9]
  MIC: 0.13 µg/mL (≈ 0.272 µM)
[10]
  MIC: 8.2 ng/mL (≈ 0.0172 µM)
[11]
  MIC: 0.066 µg/mL (≈ 0.138 µM)
[12]
  antibacterial activity: very strong antibacterial activity
[13]; [29]
  activity of purified preparate: about 980 unit/mg
[13]
  activity: 970 units
[14]
  MIC: 0.033 µg/mL (≈ 0.0691 µM)
[24]
  MIC: 0.033 µg/mL (≈ 0.0691 µM)
[25]
  antibacterial activity against certain resistant strains: strong antibacterial activity
[16]
  solubility in organic solvents: insoluble
  solubility in ethanol and acetone: slightly soluble
  solubility in methanol: soluble
  solubility in water: very soluble
[17]
  MIC: > 10 µg/mL
[18]
  MIC: 0.066 µg/mL (≈ 0.138 µM)
[19]
  MIC: 0.011 µg/mL (≈ 0.023 µM)
[26]
  MIC: 0.26 µg/mL (≈ 0.544 µM)
[20]
  MIC: 0.066 µg/mL (≈ 0.138 µM)
[22]
  MIC: 0.26 µg/mL (≈ 0.544 µM)
[23]
  LD50: 25.9 mg/kg

## NC[C@@H]1CC[C@@H](N)[C@@H](O[C@H]2[C@H](O)[C@@H](O[C@H]3O[C@H](CO)[C@@H](O)[C@H](N)[C@H]3O)[C@H](N)C[C@@H]2N)O1 [dibekacin, 3,4-dideoxy kanamycin B]
[27]
  effect on resistant strains: ineffective

## NCC1OC(OC2C(N)CC(N)C(OC3OC(CO)C(O)C(N)C3O)C2O)C(O)C(O)C1O (stereo not shown) [kanamycin A]
[27]
  effect on resistant strains: ineffective

## NC[C@H]1O[C@H](O[C@H]2[C@H](O)[C@@H](O[C@H]3O[C@H](CO)[C@@H](O)[C@H](N)[C@H]3O)[C@H](N)C[C@@H]2N)[C@H](O)[C@@H](O)[C@@H]1O [kanamycin]
[28]
  effect on resistant strains: ineffective

## CNCC1CCC(N)C(OC2C(N)CC(N)C(OC3OCC(C)(O)C(NC)C3O)C2O)O1 (stereo not shown) [sagamicin (antibiotic XK-62-2)]
[28]
  effect on resistant strains: ineffective

## CN[C@@H]1[C@@H](O)[C@@H](O[C@@H]2[C@@H](O)[C@H](O[C@H]3OC(CN)=CC[C@H]3N)[C@@H](N)C[C@H]2N)OC[C@]1(C)O [sisomicin]
[27]
  effect on resistant strains: ineffective

## CNC1CC(N)C(OC2OCC(C)(O)C(NC)C2O)C(O)C1OC1OC(CN)CCC1N (stereo not shown) [sulfate salt of XK-62-3]
[13]
  activity: about 630 units

## CNC1C(O)C(OC2C(N)CC(N)C(OC3OC(CN(C)C)CCC3N)C2O)OCC1(C)O (stereo not shown) [sulfate salt of XK-62-4]
[13]
  activity: about 625 units
